Columns and labels:
[1] = test system: female Wistar rats; assay: Acute oral toxicity test (OECD423); format: in vivo; details: for Absolute organ weight, Heart / Absolute organ weight, Kidneys / Absolute organ weight, Liver / Absolute organ weight, Lungs / Absolute organ weight, Ovaries / Absolute organ weight, Spleen / Absolute organ weight, Uterus: 2000 mg/kg oral single dose; for Relative organ weight, Kidneys: organ/b.w. × 100
Protocol: Adult specific pathogen free (SPF) female Wistar rats (4–6 weeks old) were purchased from Lanzhou Veterinary Research Institute, Chinese Academy of Agricultural Sciences. Animals were kept in clean stainless steel cages (3 rats per cage), free access to food and water and maintained under the 23 °C conditions with a constant 12 h light–dark cycle. Animals were acclimatized for at least 7 days before the experiment. […] The animal study was carried out in compliance with the ARRIVE guidelines.
Acute toxicity tests of EDT were performed according to OECD423 bulletin[23]. This method can measure drug roughly LD50 with fewer experimental animals. […] Six animals were randomly separated into one treatment group (n = 3) and control group (n = 3). Rats in treatment group were orally administered with a single dose of 2000 mg/kg of EDT dissolved in vehicle (corn oil: DMSO = 4:1) in a volume of 10 mL/kg body weight (b.w.) by gavage. Animals in the control group only received 10 mL/kg vehicle. […] After first round treatment, observations were focused on mortality, behavioural symptoms and changes in skin, eyes and fur. Individual body weight was recorded at the starting of protocol and at the end of protocol. […] On the 14th day, all the surviving animals were euthanized with ketamine hydrochloride 70 mg/kg (i.p.) and their hearts, livers, spleens, lungs, kidneys, uterus and ovaries were individually observed for overt pathology and removed for relative weight calculation (organ/b.w. × 100).

[2] = test system: Salmonella Typhimurium TA100; assay: Ames test, TA100; format: cell-based
Protocol: Before the test, Salmonella Typhimurium (S. Typhimurium) TA97a, TA98, TA100, TA102, TA1535 and Escherichia coli WP2uvrA pKM101 (pKM101) were first checked for their genetic integrity, including biotin dependence, rfa marker (crystal violet), biotin, histidine dependence and presence of the plasmid pKM101 (ampicillin resistance) or pAQ1 (tetracycline resistance). […] The maximum concentration of EDT was also screened using a preliminary experiment.
DMSO (0.1 mL) was directly incorporated into 1.9 mL melted top agar as the vehicle control. […] Each strain (0.1 mL, 6–7 log10 CFU/mL) was added into 2 mL of top agar in which comprised 0.5 mL S9 (10%), serial concentrations of EDT (2000, 400, 80, 16 and 3.2 μg/plate), DMSO or control chemicals for testing with the S9. For testing without S9, 0.5 mL phosphate buffer saline (PBS, pH 7.4) replaced the S9 mix. Then, the obtained top agar was melted, poured onto the surface of […] and swirled to distribute the top agar to all surfaces of medium, followed by incubation at 37 °C for 48 h. The resultant colonies were counted manually as the number of revertant colonies per plate. The experiments were performed in triplicate and the results were expressed as the average ± SD.

C=CC1(C)CC(OC(=O)CSc2nc(C)c(C(=O)OCC)c(C)n2)C2(C)C(C)CCC3(CCC(=O)C32)C(C)C1O (centres unmarked) [EDT, 14-O-[(5-ethoxycarbonyl-4,6-dimethylpyrimidine-2-yl)thioacetyl] mutilin]
LD50 ([1]; female Wistar rats, single oral dose, OECD Guidelines 423): more than 2000 mg/kg body weight
Absolute organ weight, Heart ([1]; first round treatment, day 14): 0.71 ± 0.06 g
Absolute organ weight, Kidneys ([1]; first round treatment, day 14): 1.11 ± 0.01 g
Absolute organ weight, Liver ([1]; first round treatment, day 14): 9.66 ± 0.17 g
Absolute organ weight, Lungs ([1]; first round treatment, day 14): 1.38 ± 0.03 g
Absolute organ weight, Ovaries ([1]; first round treatment, day 14): 0.06 ± 0.00 g
Absolute organ weight, Spleen ([1]; first round treatment, day 14): 0.70 ± 0.03 g
Absolute organ weight, Uterus ([1]; first round treatment, day 14): 0.45 ± 0.02 g
Relative organ weight, Kidneys ([1]; first round treatment): 0.52 ± 0.01%
Relative organ weight, Ovaries ([1]; rat, in vivo): 0.03 ± 0.00%
Relative organ weight, Spleen ([1]; rat, in vivo): 0.33 ± 0.01%
mortality ([1]; rat, in vivo, po, 2000 mg/kg): no mortality
Absolute organ weight, Heart ([1]; second round treatment, day 14): 0.75 ± 0.03 g
Absolute organ weight, Kidneys ([1]; second round treatment, day 14): 1.11 ± 0.03 g
Absolute organ weight, Liver ([1]; second round treatment, day 14): 9.69 ± 0.06 g
Absolute organ weight, Lungs ([1]; second round treatment, day 14): 1.40 ± 0.05 g
Absolute organ weight, Ovaries ([1]; second round treatment, day 14): 0.06 ± 0.00 g
Absolute organ weight, Spleen ([1]; second round treatment, day 14): 0.71 ± 0.03 g
Absolute organ weight, Uterus ([1]; second round treatment, day 14): 0.43 ± 0.03 g
Relative organ weight, Kidneys ([1]; second round treatment): 0.52 ± 0.01%
body weight compared to the control group ([1]; single oral 2000 mg/kg, 14 days): did not produce alterations in body weight
macroscopic necropsy examination ([1]; single oral 2000 mg/kg, day 14): no gross pathological lesions
number of revertant colonies per plate ([2]; TA100, 3.2 μg/plate, +S9): 119.67 ± 7.33
number of revertant colonies per plate ([2]; TA100, 3.2 μg/plate, −S9): 109.00 ± 8.00
number of revertant colonies per plate ([2]; TA100, 16 μg/plate, +S9): 103.67 ± 9.33
number of revertant colonies per plate ([2]; TA100, 16 μg/plate, −S9): 101.00 ± 9.00
number of revertant colonies per plate ([2]; TA100, 80 μg/plate, +S9): 118.67 ± 14.33
number of revertant colonies per plate ([2]; TA100, 80 μg/plate, −S9): 105.33 ± 13.67
number of revertant colonies per plate ([2]; TA100, 400 μg/plate, +S9): 134.33 ± 12.67
number of revertant colonies per plate ([2]; TA100, 400 μg/plate, −S9): 129.67 ± 15.33
number of revertant colonies per plate ([2]; TA100, 2000 μg/plate, +S9): 137.00 ± 14.00
number of revertant colonies per plate ([2]; TA100, 2000 μg/plate, −S9): 122.67 ± 11.33

— publication PMC10502144, “Anti-methicillin-resistant Staphylococcus aureus activity and safety evaluation of 14-O-[(5-ethoxycarbonyl-4,6-dimethylpyrimidine-2-yl) thioacetyl] mutilin (EDT)” (Scientific Reports, 2023)
